Data taken from patent US20230348456A1, “QUINAZOLINONES, PHARMACEUTICAL COMPOSITIONS CONTAINING THE SAME, AND METHODS OF USING THE SAME” (Repare Therapeutics Inc., priority 2022, published 2023).

Biological target: recombinant human Myt1 (Homo sapiens (Human), UniProt Q99640)
Test: Myt1 enzymatic assay (ADP-Glo kinase assay)
Format: biochemical
Conditions: recombinant human Myt1 18 nM, ATP 10 μM
Experimental: Detection of Myt1 kinase activity utilized a recombinant human Myt1 kinase assay measuring the hydrolysis of ATP using a commercially available ADP-Glo Assay (ADP-Glo™ Kinase Assay from Promega, 10 000 assays, #V9102). Briefly, 5 μL recombinant human Myt1 (full length PKMYT1 recombinant human protein expressed in insect cells from Thermo Fisher #A33387; ˜80% purity) was prepared in reaction buffer (70 mM HEPES, 3 mM MgCl2, 3 mM MnCl2, 50 μg/ml PEG 20000, 3 μM Na-orthovanadate, 1.2 mM DTT) and added to 384 well white polystyrene, flat bottom well, non-treated, microplate (Corning #3572). After this, 5 μL of compounds (diluted in reaction buffer to 0.5% DMSO) was added to the microplate and the plate was spun briefly and incubated at 22° C. for 15 minutes. Ultra-Pure Adenosine Triphosphate (ATP) solution (ADP-Glo kit from Promega) was diluted in reaction buffer and 5 μL was added to the microplate, spun down briefly and incubated for 60 minutes at 30° C. The final Myt1 enzyme concentration was 18 nM and the final ATP concentration was 10 μM. After the 60-minute incubation, 15 μL of ADP-Glo reagent was added and the plate was spun briefly and sealed and incubated in the dark for 40 minutes at 22° C. Following this, 30 μL of kinase detection reagent was added per well and the plate was spun briefly, sealed and incubated for 45-60 minutes at 22° C. in the dark. Luminescence was read using the Envision (250 ms integration). The IC50 and the % max inhibition were calculated for each inhibitor compound tested.

Sequence of recombinant human Myt1 (Q99640 whole entry): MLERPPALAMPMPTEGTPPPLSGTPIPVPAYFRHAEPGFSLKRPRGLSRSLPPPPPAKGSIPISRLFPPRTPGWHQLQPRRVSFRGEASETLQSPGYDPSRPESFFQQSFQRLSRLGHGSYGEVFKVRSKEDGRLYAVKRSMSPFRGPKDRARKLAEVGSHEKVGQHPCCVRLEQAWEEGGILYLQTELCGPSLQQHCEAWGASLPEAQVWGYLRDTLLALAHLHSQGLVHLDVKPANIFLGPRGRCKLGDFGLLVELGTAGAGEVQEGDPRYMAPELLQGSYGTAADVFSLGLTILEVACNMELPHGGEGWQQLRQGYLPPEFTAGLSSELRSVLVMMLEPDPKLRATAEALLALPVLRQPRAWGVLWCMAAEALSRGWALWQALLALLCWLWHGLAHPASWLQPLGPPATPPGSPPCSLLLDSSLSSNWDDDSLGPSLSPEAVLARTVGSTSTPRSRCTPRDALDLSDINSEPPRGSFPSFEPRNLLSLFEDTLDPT

Compound	IC50
Cc1ccc(O)cc1-c1cc(Br)c2c(c1N)C(=O)NC2 [Compound 69]	864 nM
Nc1c(-c2cccc3[nH]ncc23)cc(C2=CCC(F)(F)CC2)c2nc(-c3ccncc3)[nH]c(=O)c12 [Compound 71]	21 nM
Nc1c(-c2cccc3[nH]ncc23)cc(-n2ccc(C3CC3)n2)c2nc(-c3cccnc3)[nH]c(=O)c12 [Compound 74, 5-amino-8-(3-cyclopropylpyrazol-1-yl)-6-(1H-indazol-4-yl)-2-(3-pyridyl)-3H-quinazolin-4-one]	11 nM
Nc1c(-c2cccc3[nH]ncc23)cc(-n2ccc(C3CCOCC3)n2)c2nc(-c3cccnc3)[nH]c(=O)c12 [Compound 76]	8 nM
Nc1c(-c2cccc3[nH]ncc23)cc(-c2ccccn2)c2nc[nH]c(=O)c12 [Compound 82]	35 nM
Cc1ccc(O)cc1-c1ccc2c(c1N)C(=O)NC2 [Compound 85]	16000 nM
Nc1c(-c2cccc3[nH]ncc23)cc(-n2cc3c(n2)CCC3)c2nc(-c3ccncc3)[nH]c(=O)c12 [Compound 86]	18 nM
Nc1c(-c2cccc3[nH]ncc23)cc(-n2cc(C(F)(F)F)cn2)c2nc(-c3ccncc3)[nH]c(=O)c12 [Compound 87]	100 nM
Cc1ccc2[nH]ncc2c1-c1cc(-c2cccc(OCCN3CCCC3)n2)c2nc[nH]c(=O)c2c1N [Compound 89]	13 nM
Cc1ccc2[nH]ncc2c1-c1cc(-c2cccc(OCc3nccn3C)n2)c2nc[nH]c(=O)c2c1N [Compound 90]	11 nM
Nc1c(-c2cccc3[nH]ncc23)cc(C2CC2)c2nc(-c3cccnc3)[nH]c(=O)c12 [Compound 92]	7 nM
Cc1ccc(O)cc1-c1cc(-c2nccs2)c2c(c1N)C(=O)NC2 [Compound 93]	22 nM
Nc1c(-c2cccc3[nH]ncc23)cc(-c2cccc(OCC(=O)O)c2)c2nc[nH]c(=O)c12 [Compound 94]	46 nM
Nc1c(-c2cccc3[nH]ncc23)cc(-c2cccc(OCc3ncco3)c2)c2nc[nH]c(=O)c12 [Compound 95]	10 nM
Nc1c(-c2cccc3[nH]ncc23)ccc2nc(-c3ccncc3)[nH]c(=O)c12 [Compound 96]	67 nM
Cc1ccc2[nH]ncc2c1-c1cc(-c2cccc(OC[C@H]3COCCO3)n2)c2nc[nH]c(=O)c2c1N [Compound 97]	10 nM
Cc1ccc2[nH]ncc2c1-c1cc(-c2cccc(F)n2)c2nc[nH]c(=O)c2c1N [Compound 99]	17 nM
Cc1ccc2[nH]ncc2c1-c1cc(-c2cccc(OC[C@@H]3COCCO3)n2)c2nc[nH]c(=O)c2c1N [Compound 101]	11 nM
Cc1ccc2[nH]ncc2c1-c1cc(-c2cccc(OCc3ncccn3)n2)c2nc[nH]c(=O)c2c1N [Compound 102]	10 nM
COCCOc1ccc(-c2nc3c(Br)cc(-c4cccc5[nH]ncc45)c(N)c3c(=O)[nH]2)cn1 [Compound 103]	8 nM
Cc1ccc(O)cc1-c1cc(C2=CCOCC2)c2c(c1N)C(=O)NC2 [Compound 105]	641 nM
Nc1c(-c2cccc3[nH]ncc23)cc(Br)c2nc[nH]c(=O)c12 [Compound 106]	24 nM
Cc1ccc(O)cc1-c1cc(-c2ncccn2)c2c(c1N)C(=O)NC2 [Compound 108]	73 nM

Compound	IC50
Nc1c(-c2cccc3[nH]ncc23)ccc2nc[nH]c(=O)c12 [Compound 109]	122 nM
Cc1ccc2[nH]ncc2c1-c1cc(-c2cccc(OC3CCOCC3)n2)c2nc[nH]c(=O)c2c1N [Compound 110]	7 nM
Nc1c(-c2cccc3[nH]ncc23)cc(-c2nccs2)c2nc(CCc3cccnc3)[nH]c(=O)c12 [Compound 112]	34 nM
Cc1ncccc1-c1nc2c(-c3nccs3)cc(-c3cccc4[nH]ncc34)c(N)c2c(=O)[nH]1 [Compound 113]	94 nM
Nc1c(-c2cccc3[nH]ncc23)cc(-c2ncc(Cl)s2)c2nc[nH]c(=O)c12 [Compound 114]	28 nM
Nc1c(-c2cccc3[nH]ncc23)cc(-c2ncc(C(F)(F)F)s2)c2nc[nH]c(=O)c12 [Compound 115]	109 nM
Nc1c(-c2cccc3[nH]ncc23)cc(-c2nc(Cl)cs2)c2nc[nH]c(=O)c12 [Compound 116]	13 nM
Nc1c(-c2cccc3[nH]ncc23)cc(-c2ccc(F)s2)c2nc[nH]c(=O)c12 [Compound 117]	15 nM
N#Cc1ccc(-c2cc(-c3cccc4[nH]ncc34)c(N)c3c(=O)[nH]cnc23)s1 [Compound 118]	11 nM
Nc1c(-c2cccc3[nH]ncc23)cc(-c2nc(C(F)(F)F)cs2)c2nc[nH]c(=O)c12 [Compound 119]	55 nM
Nc1c(-c2cccc3[nH]ncc23)cc(-c2ncc(F)cn2)c2nc[nH]c(=O)c12 [Compound 120]	189 nM
Cc1ccc(-c2cc(-c3cccc4[nH]ncc34)c(N)c3c(=O)[nH]cnc23)s1 [Compound 121, 5-amino-6-(1H-indazol-4-yl)-8-(5-methylthiophen-2-yl)quinazolin-4(3H)-one]	62 nM
Nc1c(-c2cccc3[nH]ncc23)cc(-c2ncccn2)c2nc[nH]c(=O)c12 [Compound 122]	170 nM
Nc1c(-c2cccc3[nH]ncc23)cc(-c2ccc(Cl)s2)c2nc[nH]c(=O)c12 [Compound 123]	89 nM
Nc1c(-c2cccc3[nH]ncc23)cc(-c2cc(F)cc(F)c2)c2nc[nH]c(=O)c12 [Compound 124]	66 nM
Nc1c(-c2cccc3[nH]ncc23)cc(-c2ccc(C(F)(F)F)cc2)c2nc[nH]c(=O)c12 [Compound 125]	839 nM
Nc1c(-c2cccc3[nH]ncc23)cc(-c2ccc(C(F)(F)F)s2)c2nc[nH]c(=O)c12 [Compound 126]	880 nM
Cn1ccc(-c2cc(-c3cccc4[nH]ncc34)c(N)c3c(=O)[nH]cnc23)n1 [Compound 129]	23 nM
Nc1c(-c2cccc3[nH]ncc23)cc(-c2cnccn2)c2nc[nH]c(=O)c12 [Compound 130]	45 nM
Nc1c(-c2cccc3[nH]ncc23)cc(-c2cccnn2)c2nc[nH]c(=O)c12 [Compound 131]	70 nM
Cc1ccc2[nH]ncc2c1-c1cc(Br)c2nc[nH]c(=O)c2c1N [Compound 133]	26 nM
Cc1ccc(O)cc1-c1cc(-c2ccccn2)c2c(c1N)C(=O)NC2 [Compound 136]	548 nM

Compounds with a lower IC50, results first:

IC50	Compound
3 nM	Nc1c(-c2cccc3[nH]ncc23)cc(-c2cnn(C3CCOCC3)c2)c2nc(-c3ccncc3)[nH]c(=O)c12 [Compound 67]
6 nM	Nc1c(-c2cccc3[nH]ncc23)cc(-c2cnn(CC3CC3)c2)c2nc(-c3ccncc3)[nH]c(=O)c12 [Compound 68]
4 nM	Nc1c(-c2cccc3[nH]ncc23)cc(-c2cccc(OC[C@H]3CCCO3)n2)c2nc(-c3ccncc3)[nH]c(=O)c12 [Compound 70]
3 nM	Nc1c(-c2cccc3[nH]ncc23)cc(-c2cnn(C3CC3)c2)c2nc(-c3ccncc3)[nH]c(=O)c12 [Compound 72]
4 nM	Nc1c(-c2cccc3[nH]ncc23)cc(-c2cnn(C(F)F)c2)c2nc(-c3ccncc3)[nH]c(=O)c12 [Compound 73]
6 nM	Nc1c(-c2cccc3[nH]ncc23)cc(-n2cc(F)cn2)c2nc(-c3cccnc3)[nH]c(=O)c12 [Compound 75]
3 nM	Nc1c(-c2cccc3[nH]ncc23)cc(-n2cccn2)c2nc(-c3cccnc3)[nH]c(=O)c12 [Compound 79]
6 nM	Nc1c(-c2cccc3[nH]ncc23)cc(-c2cccc(=O)[nH]2)c2nc(-c3cccnc3)[nH]c(=O)c12 [Compound 80]
4 nM	Nc1c(-c2cccc3[nH]ncc23)cc(-c2cnn(C3CCOCC3)c2)c2nc(-c3cccnc3)[nH]c(=O)c12 [Compound 81]
5 nM	Nc1c(-c2cccc3[nH]ncc23)cc(Br)c2nc(-c3ccncc3)[nH]c(=O)c12 [Compound 83]
5 nM	Cc1ccc2[nH]ncc2c1-c1cc(-c2cccc(OCCN3CCOCC3)n2)c2nc[nH]c(=O)c2c1N [Compound 88]
5 nM	Cc1ccc2[nH]ncc2c1-c1cc(-c2cccc(OCc3ncco3)n2)c2nc[nH]c(=O)c2c1N [Compound 91]
5 nM	Cc1ccc2[nH]ncc2c1-c1cc(-c2nccs2)c2nc[nH]c(=O)c2c1N [Compound 98]
5 nM	Nc1c(-c2cccc3[nH]ncc23)cc(-c2cnn(C3COC3)c2)c2nc(-c3cccnc3)[nH]c(=O)c12 [Compound 100]
3 nM	N#Cc1csc(-c2cc(-c3cccc4[nH]ncc34)c(N)c3c(=O)[nH]cnc23)n1 [Compound 107]
4 nM	Nc1c(-c2cccc3[nH]ncc23)cc(-c2nccs2)c2nc(-c3cccnc3)[nH]c(=O)c12 [Compound 111]
5 nM	N#Cc1cnc(-c2cc(-c3cccc4[nH]ncc34)c(N)c3c(=O)[nH]cnc23)s1 [Compound 128]
4 nM	Nc1c(-c2cccc3[nH]ncc23)cc(-c2ccns2)c2nc[nH]c(=O)c12 [Compound 132]
5 nM	Cc1ccc(O)c(C)c1-c1cc(C2CC2)c2nc(-c3ccncc3)[nH]c(=O)c2c1N [Compound 134, 5-amino-8-cyclopropyl-6-(3-hydroxy-2,6-dimethyl-phenyl)-2-(4-pyridyl)-3H-quinazolin-4-one]
3 nM	Cc1ccc(O)c(C)c1-c1cc(-c2ccn(C3CC3)n2)c2nc(-c3ccncc3)[nH]c(=O)c2c1N [Compound 135]
